This note sets out measurements from patent publication US20030187261A1, “Purine derivatives, process for their preparation and use thereof” (priority 2000, published 2003).

Entries after “also recorded” stand apart in the source; their conditions may differ. Read-outs that look alike come from different tables or passages of the source.

The target of one experiment is T1, CDC2 (Homo sapiens, UniProt P06493).
T1 construct: made in house; host or cells: Sf9 insect cells, baculovirus co-infection
The experiment in a line: p34cdc2 (CDC2) kinase inhibition assay, histone H1 substrate. Format: biochemical. The note with it: Table 5, CDC2 activity in cell free system.

Experiment [1] relates to CD34+ hematopoietic progenitors (HPC) from adult bone marrow. The experiment can be described thus: myeloid colony-forming unit (CFU) assay. The format is cell-based, human. The settings on record: for IC50: 14 days, methylcellulose, total colony output; for output of the different types of myeloid colonies (CFU-E, CFU-G and CFU-M): scored differentially.
The subject of the next experiment is KG1. The experiment in a line: clonogenic output of KG1 in methylcellulose. Format: cell-based, human. The note with it: 25 μM, 14 days. The protocol: (§1) Cell lines: Human leukemic cell lines were obtained from the American Type Culture Collection (ATCC, Rockville, Md., USA). They were cultured in Iscove's Modified Dulbecco's Medium (IMDM) supplemented with 10% heat inactivated fetal calf serum (FCS), 200 U/ml penicillin, 200 μg/ml streptomycin and 1 μg/ml amphotericin B. Cells were cultured in a 5% CO2-95% air fully humidified incubator. For effects on clonogenic output, 1000 cells/well were plated in duplicate in methylcellulose (0.9%), supplemented with 20% FCS and cultured for 14 days.
Clonogenic output of KG1 was tested in methylcellulose with 25 μM of some of the novel compounds.

In experiment [2] the test system is T-lymphocyte leukemia Molt3 cell line. The experiment in a line: cell growth of Molt3 cell line, flow cytometric cell count. The settings on record: 96 hours of culture. Format: cell-based, human. As to the method: as §1
(§2) Cells were plated at 10000 per well in 200 μl IMDM medium and incubated with 0-50 μM of the compounds of the invention (Table 5), by addition of the drugs directly to the culture medium and incubated at 37° C. for 96 hours. Absolute cell number was determined by addition of a known concentration of Fluoresbrite microspheres (FITC) (Polysciences, Inc.). The absolute number of cells per well was calculated as: {(total number of beads added per well)/(number of beads measured)}×(number of measured cells in the gate of interest). All analyses were performed with a FACScan (BD), using CELLQuest software (Becton Dickinson).
The response of the myeloid leukemia KG1 and T-lymphocyte leukemia Molt3 cell lines to the cytostatic effect of the novel compounds was determined using the above-mentioned standardized bead suspension that was used to determine the absolute cell number by flow cytometric (FCM) measurement. Cells were grown in the presence of increasing concentrations of the compounds of the invention.
(Flow cytometry measures light scatter and fluorescence of single cells or particles in a stream.)

The test system of experiment [3] is PHA-stimulated lymphocytes (PBMC). The experiment can be described thus: cell number of PHA-stimulated lymphocytes (PBMC), flow cytometry. The format is cell-based, human. The note with it: 96 hours, in the presence of IL-2. As to the method:
Human peripheral blood mononuclear cells were isolated by density gradient (Ficoll-Hypaque) (LSM, ICN Biomedicals Inc.). PBMC were stimulated with 5 μg/ml phytohemaglutinin A (PHA) (Sigma) during 24-48 hours in IMDM supplemented with 10% FCS (IMDM/10% FCS) at 37° C. After washing off the PHA, PBMC were incubated with interleukin-2 (IL-2) (10 U/ml) (Genzyme).
as §2
The novel compounds were tested for cytotoxicity on PHA-stimulated lymphocytes (PBMC), as one of the normal counterparts of the cell lines. Cells were grown for 96 hours in the presence of IL-2 and different concentrations of the novel compounds and cell number was counted on the flow cytometer.

For experiment [4], the system named is myeloid leukemia KG1 cell line. The experiment in a line: cell growth of KG1 cell line, flow cytometric cell count. The settings on record: for IC50: read-out: KGI IC50.
Experimental: To determine reversibility of the effects of the new compounds, cells were plated at 10,000 per well and exposed to 0-50 μM of the composed, either continuously for 7 days (control) or only for 6 hours. In the latter case, cells were washed after 6 hours in phosphate-buffered-saline (PBS) (Life Technologies) and reseeded into drug-free medium for 7 days.
The subject of a further experiment is β-adrenergic receptors. The experiment can be described thus: isoproterenol-induced intracellular cAMP synthesis in rat C6 glioma. The note with it: cAMP induced by 5 μM (−) isoproterenol. Format: cell-based. The protocol: Rat C6 glioma (ATCC N° CCL107) was cultivated in monolayer in serum-free chemically defined medium containing Ham's F10/minimal essential medium (1:1 vol/vol), 2 mM L-glutamine, 1% (vol/vol) minimal essential medium vitamins (100×), 1% (vol/vol) minimal essential medium nonessential amino acids (100×), 100 U/ml penicillin, 100 μg/ml streptomycin and 30 nM sodium selenite. Incubation was at 37° C. in a humidified atmosphere. Assays were performed in the logaritmic growth phase at a density of 2.5×10^5 cells/cm^2. Intracellular cAMP synthesis was induced by addition of 5 μM (−) isoproterenol. After 30 min incubation at 37° C. the medium was removed and the cellular amount of cAMP determined using the cAMP-enzyme immunoassay kit of Amersham. The IC50 is determined from a dose-response curve in duplicate. The effect of seven purine-analogs was measured after simultaneous addition with isoproterenol.
As P2Y1-like and A2 purinergic receptors, negatively and positively coupled to adenylate cyclase respectively, are present on rat C6 glioma the modulation of the synthesis of cAMP may be due to inhibition of the activation of β-adrenergic receptors by isoproterenol or to activation of purinergic receptors.

In experiment [5] the test system is adult bone marrow CD34+CD38- cells. The experiment in a line: pre-CFU assay. Format: cell-based, human. The note with it: 14 day liquid culture, total clonogenic output after secondary methylcellulose culture. The source says:
[…]. Cells with low-to-medium forward and low side scatter, highly positive green (CD34) fluorescence, and an orange (CD38) fluorescence signal lower than the mean fluorescence of cells labeled with an irrelevant isotype-matched control antibody+2 standard deviations were retained as CD34^+CD38^− cells and used in pre-CFU assays.
Pre-CFU assays were initiated by performing liquid cultures of CD34^+CD38^− cells in duplicate in 96-well flat-bottomed plates in IMDM/10% FCS, 1% bovine serum albumin (BSA), 100 U/ml IL-1, 200 U/ml IL-6, 30 U/ml IL-3 and 100 ng/ml stem cell factor (SCF). Pre-CFU cultures were initiated with 500 CD34^+CD38^− cells/well (200 μl). After 14 days of culture at 37° C. in 7.5% O2 and 5% CO2 in a fully humidified incubator, the number of cells in each well was counted. Subsequently, the cells were harvested, washed three times in IMDM/10% FCS, and plated in duplicate at 500 cells/well (1000 μl) in secondary methylcellulose CFU cultures as described for CFU assays.
Pre-CFU were cultured starting from adult bone marrow CD34^+CD38^− cells, that had been isolated using the FCM cell sorter. Novel compounds were added at different concentrations to the primary 14 day liquid culture. IC50 was calculated from dose-response curves from total clonogenic output after secondary methylcellulose culture (Table 5).

T1 sequence (P06493 whole entry, species assumed): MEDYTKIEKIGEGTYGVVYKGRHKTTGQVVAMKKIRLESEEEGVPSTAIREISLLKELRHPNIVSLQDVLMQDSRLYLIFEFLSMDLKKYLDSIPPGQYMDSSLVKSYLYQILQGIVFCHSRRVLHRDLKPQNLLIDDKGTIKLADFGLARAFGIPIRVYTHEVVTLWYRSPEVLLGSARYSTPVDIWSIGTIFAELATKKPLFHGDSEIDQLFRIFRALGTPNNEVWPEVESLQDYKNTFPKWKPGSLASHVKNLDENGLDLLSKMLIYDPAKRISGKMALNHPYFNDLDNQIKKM
T1 sequence (P14635 whole entry partner, species assumed): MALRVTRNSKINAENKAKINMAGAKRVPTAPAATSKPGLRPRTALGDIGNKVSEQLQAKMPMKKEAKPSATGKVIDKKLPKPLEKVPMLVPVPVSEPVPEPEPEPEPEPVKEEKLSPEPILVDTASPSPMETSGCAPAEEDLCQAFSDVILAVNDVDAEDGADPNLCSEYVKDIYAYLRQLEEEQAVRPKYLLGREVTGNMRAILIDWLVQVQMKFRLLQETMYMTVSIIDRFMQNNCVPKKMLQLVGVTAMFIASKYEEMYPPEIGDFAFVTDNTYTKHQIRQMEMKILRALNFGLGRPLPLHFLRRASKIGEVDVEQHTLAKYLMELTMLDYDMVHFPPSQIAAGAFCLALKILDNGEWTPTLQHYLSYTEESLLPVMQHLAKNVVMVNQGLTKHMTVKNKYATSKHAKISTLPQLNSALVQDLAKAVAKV

“2-(3-aminoethylamino)-6-(3,3-dihydroxybenzyl)amino-9-isopropylpurine [P28]”: the IC50 against CDC2 came to 1.5 µM; in experiment [1], 8.5 µM; in experiment [2], 14 ± 1.8 µM; in experiment [3], 9 ± 2.2 µM; in experiment [4] (96 hours of culture) it was 16 ± 1.3 µM; in experiment [5], 3.5 µM. Besides, the “output of the different types of myeloid colonies (CFU-E, CFU-G and CFU-M)” value in experiment [1] is listed as “significantly lower colony output”. For the same molecule, the “Colony output vs. control cultures without novel compound” value in the experiment on KG1 was determined as 0%. Also, the “cell number after 6 hours of exposure, wash and 7 days in drug-free medium” value in experiment [4] (KG1, compared to control without novel compounds) is reported as “(some) recovery of cell number”. Also, the “Effect: fold activation” value in the experiment with β-adrenergic receptors (50 μM) was 1.3-fold activation.

Turning to `CCCCCCNc1nc(NC(CO)c2ccccc2)c2ncn(C(C)C)c2n1` (stereo not drawn) [P23, 2-(hexylamino)-6-(1-phenyl-2-hydroxyethylamino)-9-isopropylpurine], the IC50 against CDC2 was 60 µM; in experiment [1] (Homo sapiens, 336 h), more than 50 µM; in experiment [2] (Homo sapiens, MOLT-3) it was 16 ± 0.8 µM; in experiment [4] (Homo sapiens, KG-1, 96 h) it was 8 ± 0.6 µM; in the experiment on β-adrenergic receptors (30 min, read-out: I50), 15 ± 2 µM; in experiment [5] (Homo sapiens, 336 h), more than 25 µM. Also, in experiment [1], the “output of the different types of myeloid colonies (CFU-E, CFU-G and CFU-M)” value is listed as “significantly lower colony output”. In addition, the “Colony output vs. control cultures without novel compound” value in the experiment on KG1 is recorded as 19%. In addition, the CC50 in experiment [3] (Homo sapiens, Lymphocyte, read-out: Lymphocytes IC50) is 15 ± 2 µM. Also, in experiment [4] (FIG. 2), the “effectiveness on KG1 compared with normal PBMC” value is listed as “significantly more effective on KG1 than on normal PBMC; also recorded: significantly more effective on KG1 than on normal-PBMC”. For the same molecule, in the experiment on β-adrenergic receptors (30 min, rat C6 glioma), the Effect result was “inhibition”.
